16 molecules from patent publication US8269008B2, “Oxazolopyridine and isoxazolopyridine derivatives for use in the treatment of HIF-mediated conditions” (FibroGen, Inc., priority 2007, dated 2012) can be followed below.

The structures appear in SMILES notation.

The first experiment deals with T1, HIF-PH2 (EGLN1) (Homo sapiens, UniProt Q9GZT9).
T1 construct: made in house; host or cells: insect Hi5 cells
T1 sequence (Q9GZT9 whole entry, species assumed): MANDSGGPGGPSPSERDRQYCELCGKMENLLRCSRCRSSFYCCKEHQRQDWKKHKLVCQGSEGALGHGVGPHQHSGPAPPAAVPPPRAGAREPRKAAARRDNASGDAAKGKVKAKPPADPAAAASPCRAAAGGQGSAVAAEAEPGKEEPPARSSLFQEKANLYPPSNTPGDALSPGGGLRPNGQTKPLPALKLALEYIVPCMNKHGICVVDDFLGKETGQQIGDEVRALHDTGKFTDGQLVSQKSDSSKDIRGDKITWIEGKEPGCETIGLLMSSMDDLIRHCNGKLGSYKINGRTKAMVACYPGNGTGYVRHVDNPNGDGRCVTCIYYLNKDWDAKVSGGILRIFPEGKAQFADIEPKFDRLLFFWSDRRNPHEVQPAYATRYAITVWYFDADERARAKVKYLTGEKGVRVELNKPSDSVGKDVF
Put plainly: HIF-PH assay (14CO2 capture, peptide-dependent turnover). The format is biochemical. The conditions noted are these: Concentration 22.22 μM. The source says:
Ketoglutaric acid α-[1-^14C]-sodium salt, alpha-ketoglutaric acid sodium salt, and HPLC purified peptide may be obtained from commercial sources, e.g., Perkin-Elmer (Wellesley Mass.), Sigma-Aldrich, and SynPep Corp. (Dublin Calif.), respectively. Peptides for use in the assay may be fragments of HIFα as described above or as disclosed in International Publication WO 2005/118836, incorporated by reference herein. For example, a HLF peptide for use in the HIF-PH assay is [methoxycoumarin]-DLDLEALAPYIPADDDFQL-amide. HIF-PH, e.g., HIF-PH2 (EGLN1), can be expressed in, e.g., insect Hi5 cells, and partially purified, e.g., through a SP ion exchange chromatography column. Enzyme activity is determined by capturing ^14CO2 using an assay described by Kivirikko and Myllyla (1982, Methods Enzymol. 82:245-304). Assay reactions contain 50 mM HEPES (pH 7.4), 100 μM α-ketoglutaric acid sodium salt, 0.30 μCi/mL ketoglutaric acid α-[1-^14C]-sodium salt, 40 μM FeSO4, 1 mM ascorbate, 1541.8 units/mL Catalase, with or without 50 μM peptide substrate and various concentrations of compound of the invention. Reactions are initiated by addition of HIF-PH enzyme.
The peptide-dependent percent turnover is calculated by subtracting percent turnover in the absence of peptide from percent turnover in the presence of substrate peptide. Percent inhibition and IC50 are calculated using peptide-dependent percent turnover at given inhibitor concentrations. Calculation of IC50 values for each inhibitor is conducted using GraFit software (Erithacus Software Ltd., Surrey UK). […]
`N#Cc1cccc(-c2noc3cnc(C(=O)NCC(=O)O)c(O)c23)c1` [Example 67, {[3-(3-Cyano-phenyl)-4-hydroxy-isoxazolo[5,4-c]pyridine-5-carbonyl]-amino}-acetic acid] showed an inhibition at 22.22 µM of 98.4%.

On to `N#Cc1ccc(-c2noc3cnc(C(=O)NCC(=O)O)c(O)c23)cc1` [Example 68, {[3-(4-Cyano-phenyl)-4-hydroxy-isoxazolo[5,4-c]pyridine-5-carbonyl]-amino}-acetic acid], for which testing at 22.22 µM gave an inhibition of 97.4%.

`O=C(O)CNC(=O)c1ncc2onc(-c3ccc(Oc4ccccc4)cc3)c2c1O` [Example 69, {[4-Hydroxy-3-(4-phenoxy-phenyl)-isoxazolo[5,4-c]pyridine-5-carbonyl]-amino}-acetic acid] gave an inhibition at 22.22 µM of 99.8%.

For the molecule `Cc1noc2cnc(C(=O)NCC(=O)O)c(O)c12` [Example 70, [(4-Hydroxy-3-methyl-isoxazolo[5,4-c]pyridine-5-carbonyl)-amino]-acetic acid], the inhibition at 22.22 µM was 99.3%.

As for `Cc1noc2c(-c3ccccc3)nc(C(=O)NCC(=O)O)c(O)c12` [Example 71, [(4-Hydroxy-3-methyl-7-phenyl-isoxazolo[5,4-c]pyridine-5-carbonyl)-amino]-acetic acid], the inhibition at 22.22 µM came out at 97.5%.

On to `Cc1nc(C(=O)NCC(=O)O)c(O)c2c(C)noc12` [Example 72, [(4-Hydroxy-3,7-dimethyl-isoxazolo[5,4-c]pyridine-5-carbonyl)-amino]-acetic acid], for which the inhibition at 22.22 µM amounted to 94.6%.

The molecule `Cc1nc(C(=O)NCC(=O)O)c(O)c2c(-c3ccc(OC(F)(F)F)cc3)noc12` [Example 73, {[4-Hydroxy-7-methyl-3-(4-trifluoromethoxy-phenyl)-isoxazolo[5,4-c]pyridine-5-carbonyl]-amino}-acetic acid] displayed an inhibition at 22.22 µM of 97.4%.

As for `COc1ccc(-c2noc3c(C)nc(C(=O)NCC(=O)O)c(O)c23)cc1` [Example 74, {[4-Hydroxy-3-(4-methoxy-phenyl)-7-methyl-isoxazolo[5,4-c]pyridine-5-carbonyl]-amino}-acetic acid], the inhibition at 22.22 µM turned out to be 94.4%.

`O=C(O)CNC(=O)c1ncc2onc(-c3ccc(Cl)cc3Cl)c2c1O` [Example 75, {[3-(2,4-Dichloro-phenyl)-4-hydroxy-isoxazolo[5,4-c]pyridine-5-carbonyl]-amino}-acetic acid]: the inhibition at 22.22 µM was 98%.

For the molecule `CS(=O)(=O)c1ccc(-c2noc3cnc(C(=O)NCC(=O)O)c(O)c23)cc1` [Example 76, {[4-Hydroxy-3-(4-methanesulfonyl-phenyl)-isoxazolo[5,4-c]pyridine-5-carbonyl]-amino}-acetic acid], the inhibition at 22.22 µM came to 99.4%.

Staying with this experiment, now noted: Concentration 200.00 μM.
With `CC(=O)c1nc(C(=O)NCC(=O)O)c(O)c2onc(-c3ccccc3)c12` [Example 61, [(4-Acetyl-7-hydroxy-3-phenyl-isoxazolo[4,5-c]pyridine-6-carbonyl)-amino]-acetic acid], 200 µM produced 100% inhibition.

On to `O=C(O)CNC(=O)c1nc(Cc2ccccc2)c2c(-c3ccccc3)noc2c1O` [Example 62, [(4-Benzyl-7-hydroxy-3-phenyl-isoxazolo[4,5-c]pyridine-6-carbonyl)-amino]-acetic acid], for which testing at 200 µM gave an inhibition of 100%.

With `O=C(O)CNC(=O)c1nc(-c2cn(Cc3ccccc3)nn2)c2c(-c3ccccc3)noc2c1O` [Example 63, {[4-(1-Benzyl-1H-[1,2,3]-triazol-4-yl)-7-hydroxy-3-phenyl-isoxazolo[4,5-c]pyridine-6-carbonyl]-amino}-acetic acid], testing at 200 µM gave an inhibition of 100%.

Regarding `O=C(O)CNC(=O)c1nc(C(F)(F)F)c2c(-c3ccccc3)noc2c1O` [Example 64, [(7-Hydroxy-3-phenyl-4-trifluoromethyl-isoxazolo[4,5-c]pyridine-6-carbonyl)-amino]-acetic acid], at 200 µM the inhibition was 94.2%.

Molecule `O=C(O)CNC(=O)c1ncc2c(C3=CCCCC3)noc2c1O` [Example 65, [(3-Cyclohex-1-enyl-7-hydroxy-isoxazolo[4,5-c]pyridine-6-carbonyl)-amino]-acetic acid] had an inhibition at 200 µM of 100%.

As for `CCc1noc2c(O)c(C(=O)NCC(=O)O)ncc12` [Example 66, [(3-Ethyl-7-hydroxy-isoxazolo[4,5-c]pyridine-6-carbonyl)-amino]-acetic acid], the inhibition at 200 µM came to 99.1%.
